Assay results from patent US11963962B2, “Platelet count-agnostic methods of treating myelofibrosis” (Sierra Oncology, Inc., priority 2018, dated 2024).
Where two headings read alike, the source gives them in different places. Marks after values point to notes of the source that are not given here.

Legend:
myelofibrosis [1] = details: cited from earlier work
myelofibrosis [2] = assay: SIMPLIFY-1 Phase 3 trial: total symptom score (TSS) response at week 24; format: in vivo, human; details: for TSS response rate: SIMPLIFY 1, week 24
Experimental: (§1) In the SIMPLIFY-1 trial (NCT01969838), the efficacy and safety of MMB versus ruxolitinib (RUX) was studied in patients with myelofibrosis who were naïve to treatment with a JAK inhibitor and a platelet count of ≥50×10^9/L. Patients (N=432) with high risk or intermediate-2 risk or symptomatic intermediate-1 risk myelofibrosis received 24 weeks of treatment with 200 mg MMB once daily or 20 mg RUX twice a day (or per label), after which all patients could receive open-label momelotinib. […] The primary endpoint was a reduction by at least 35% in the spleen volume at 24 weeks compared with baseline.
(§2) FIG. 8A: SIMPLIFY-1 study of MMB in a first line population previously untreated with JAKi. For SIMPLIFY-1, the goal was non-inferiority over ruxolitinib (RUX) (MMB: N=215 subjects, and RUX: N=217 subjects). FIG. 8B: SIMPLIFY-2 study of second line population of anemic or thrombocytopenic subjects previously treated with RUX (red blood cell (RBC) transfusions on RUX=64%. RUX dose adjustment for: thrombocytopenia=21%; anemia/hematoma=35%). For SIMPLIFY-2, the goal was superiority over best available treatment (BAT) (MMB: N=104 subjects, and BAT: N=52 subjects). In both SIMPLIFY-1 and SIMPLIFY: Primary endpoint: >=35% reduction in spleen volume at 24 weeks. Secondary endpoints: Total symptom score (TSS) response at 24 weeks. Effects on RBC transfusion requirements.
(§3) The SIMPLIFY 1 clinical trial data was reanalyzed for subgroups of subjects having particular baseline platelet counts in the MMB versus RUX arms of the study.
(§4) Patient data was analyzed according to the following baseline platelet count (PLT) subgroups and in particular according to the threshold PLT of 150×10^9/L: 1) PLT<50×10^9/L; 2) 50×10^9/L≤PLT<100×10^9/L; 3) 100×10^9/L≤PLT<150×10^9/L. The reanalyzed data is presented in Table 13 (SIMPLIFY 1). Selected data is also illustrated in the following figures.

myelofibrosis [3] = assay: SIMPLIFY-1 Phase 3 trial: transfusion independence and TD to TI conversion; format: in vivo, human; details: SIMPLIFY 1
Excerpt: The improved outcome from MMB therapy that results from practicing the subject methods can be manifested as an improvement in one or more clinical endpoints (e.g., as described herein), such as anemia response, in spleen response and/or symptom response. By “anemia response” is meant an increase in the patient's hemoglobin level or a patient who was transfusion dependent becoming transfusion independent. Desirably, a minimum increase in hemoglobin of 0.5 g/dL, such as 1.0 g/dL 1.5 g/dL or 2.0 g/dL lasting a minimum of 8 weeks is achieved, which is the level of improvement specified in the International Working Group (IWG) consensus criteria. However, smaller, but still medically significant, increases in hemoglobin are also considered to be within the term “anemia response”. “Transfusion independence” is an anemia endpoint and refers to a subject who required no RBC transfusions over a 12 week period and had no hemoglobin levels less than 8 g/dL to 8.5 g/dL over the 12 week period. In some embodiments, the 12 week period of transfusion independence is the terminal 12 weeks of a 24 week study period. By red blood cell (RBC) transfusion independence rate at week 24 of a study is meant the proportion of subjects who were transfusion independent at week 24, excluding cases associated with clinically overt bleeding.
as §1, §2, §3, §4

myelofibrosis [4] = assay: SIMPLIFY-1 Phase 3 trial: splenic response rate (SRR); format: in vivo, human; details: SIMPLIFY 1, week 24
Experimental: as §1, §2, §3, §4

myelofibrosis [5] = assay: SIMPLIFY-1 dynamic and time-to-event analyses of RBC transfusions; format: in vivo, human; details: SIMPLIFY-1, 24 week randomized treatment period
Excerpt: The SIMPLIFY-1 (S1) trial, a double-blind, active-controlled Phase 3 study in which 432 patients received randomized treatment with MMB or RUX for 24 weeks was previously reported (Mesa R A, Kiladjian J J, Catalano J V. et al. “Simplify-1: A phase III randomized trial of momelotinib versus ruxolitinib in j anus kinase inhibitor—naïve patients with myelofibrosis”, Journal of Clinical Oncology, 2017; 35:3844-50).
Since transfusion burden is of significant concern to clinicians and patients, to better understand the dynamics of RBC transfusions we further examined the S1 data through statistical models utilizing a variety of novel anemia benefit endpoints including time until transfusion and overall intensity of transfusions across time. The proportions of patients with 0 and 4 transfusions were calculated and time-to-event analyses examining time-to-first and time-to-fifth units transfused also conducted. Since transfusions typically comprise 2 units, the fifth unit transfused represents a de facto third transfusion event. The number of units transfused were also considered to be recurrent events and examined with and without patients' baseline characteristics as covariates. Finally, a mixture model, based on a zero-inflated negative binomial (ZINB) distribution fit to the transfusion data, was employed to compare between the treatment groups the proportions of subjects with zero transfusion burden and the mean transfusion rates.

myelofibrosis [6] = assay: SIMPLIFY-1 Phase 3 trial: safety (anemia, platelet counts, hemoglobin); format: in vivo, human
Experimental: as §1
The mean platelet count for RUX patients is demonstrably lower than the mean platelet count for MMB patients.
The MMB subjects were thus at lower risk of developing thrombocytopenia (e.g., Grade 3 or 4 thrombocytopenia), or of having to undergo undesirable dose reduction because they were able to largely maintain their platelet counts during therapy.

[7] = ITT, platelets 50-100 (subgroup 2)
[8] = ITT, platelets 100-150 (subgroup 3)
[9] = baseline TSS ≥ 6, platelets 50-100 (subgroup 2)
[10] = baseline TSS ≥ 6, platelets 100-150 (subgroup 3)
[11] = baseline TSS ≥ 10, all patients
[12] = baseline TSS ≥ 10, platelets 50-100 (subgroup 2)
[13] = baseline TSS ≥ 10, platelets 100-150 (subgroup 3)

N#CC[C@H](C1CCCC1)n1cc(-c2ncnc3[nH]ccc23)cn1 [RUX, ruxolitinib, reference compound]
median time to recovery of platelet counts above 50×10^9/L (myelofibrosis [1]; after dose reduction or dose interruption): 14 days | median time to onset of thrombocytopenia (myelofibrosis [1]; patients who developed Grade 3 or 4 thrombocytopenia): approximately 8 weeks | frequency of Grade 3 or 4 thrombocytopenia (myelofibrosis [1]; patients with a platelet count of 100×10^9 to 200×10^9/L before starting ruxolitinib): 17% | frequency of Grade 3 or 4 thrombocytopenia (myelofibrosis [1]; patients with an entry platelet count greater than 200×10^9/L): 7% | TSS response rate (myelofibrosis [2]; ITT, all patients): 41% | TSS response rate (myelofibrosis [2]; [7]): 22% | TSS response rate (myelofibrosis [2]; [8]): 39%* | TSS response rate (myelofibrosis [2]; baseline TSS ≥ 6, all patients): 42% | TSS response rate (myelofibrosis [2]; [9]): 23% | TSS response rate (myelofibrosis [2]; [10]): 33% | TSS response rate (myelofibrosis [2]; [11]): 43% | TSS response rate (myelofibrosis [2]; [12]): 21% | TSS response rate (myelofibrosis [2]; [13]): 35% | Total Symptom Score (TSS) response (myelofibrosis [2]; SIMPLIFY-1, overall): 42.2% | patients with transfusion independence promoted and maintained (TI rate) (myelofibrosis [3]): 49% | Week 24 TI rate (myelofibrosis [3]; ITT, all patients): 49% | Week 24 TI rate (myelofibrosis [3]; [7]): 39% | Week 24 TI rate (myelofibrosis [3]; [8]): 45%* | Week 24 TI rate (myelofibrosis [3]; baseline TSS ≥ 6, all patients): 48% | Week 24 TI rate (myelofibrosis [3]; [9]): 36% | Week 24 TI rate (myelofibrosis [3]; [10]): 41% | Week 24 TI rate (myelofibrosis [3]; [11]): 51% | Week 24 TI rate (myelofibrosis [3]; [12]): 32% | Week 24 TI rate (myelofibrosis [3]; [13]): 45%* | SRR (myelofibrosis [4]; ITT, all patients): 29% | SRR (myelofibrosis [4]; [7]): 0% | SRR (myelofibrosis [4]; [8]): 6% | SRR (myelofibrosis [4]; baseline TSS ≥ 6, all patients): 29% | SRR (myelofibrosis [4]; [9]): 0% | SRR (myelofibrosis [4]; [10]): 7% | SRR (myelofibrosis [4]; [11]): 29% | SRR (myelofibrosis [4]; [12]): 0% | SRR (myelofibrosis [4]; [13]): 5% | Kaplan-Meier estimate of the proportion of patients who did not require any units transfused (myelofibrosis [5]): 46% | proportion of patients requiring 4 or fewer units (myelofibrosis [5]): 62% | anemia rate (myelofibrosis [6]; SIMPLIFY 1): 38% | ≥Grade 3 anemia rate (myelofibrosis [6]; SIMPLIFY 1): 23% | platelet counts during treatment (myelofibrosis [6]; SIMPLIFY 1, 24 week double blind phase, FIGS. 31-33): significant reductions in platelet counts from baseline
